Entries after “also recorded” stand apart in the source; their conditions may differ. One block for each compound: values may come before it.
Columns and labels:
A375P cells [1] = assay: Galectin-3 punctae assay (lysosomal membrane permeabilization); assay type: cell-based; conditions: 6 hours (LLOMe 3 hr, 2 mM)
Procedure: (§1) FIG. 3: Central nitrogen methylation status dictates DNA damage versus lysosomal membrane permeability. […] Cells were imaged with fluorescent microscopy, phospho-H2AX+ cells were scored using ImageJ software analysis and quantified to the right. (B) A375P cells were treated identical to the conditions in (A), with the addition of the positive control LLoMe (3 hr, 2 mM). Cells were subsequently stained with galectin-3 and imaged with fluorescent microscopy. The formation of galectin-3 punctae, which signify lysosomal membrane permeabilization, are pointed out with yellow arrows.
When lysosomes are healthy, galectin-3 is uniformly dispersed throughout the cell. However, when the lysosome is damaged, galectin-3 rapidly localizes to the site of damaged lysosomes, appearing as punctae and marking individual leaky lysosomes.

A375P (melanoma) cells = assay: MTT anti-proliferative assay (72 hr) in A375P cells; assay type: cell-based; conditions: for anti-proliferative potency / activity (comparative): A375P and PANC1 cells, FIGS. 1C and 1D
Procedure: (§2) (A) Schematic of dimeric antimalarials (B) A375P cells were plated in a 384-well highthroughput format and treated with the quinacrine-, mefloquine- and primaquine-based compounds shown (72 hr, 1 nM-30 μM). Viability was standardized to vehicle (water) treated controls and shown are Log IC50 values calculated using GraphPad Prism. Alamar blue. (C) A375P cells were treated with the DQ compound library (72 hr, 1 nM-30 μM) MTT. (D) PANC1 cells were treated identically to (C). (E) PANC1 cells were treated with the DQ compound library as well as Lys05, Spautin and SBI-0206965 (72 hr, 3 μM). Apoptosis was assessed by Annexin-V/flow cytometry.
For MTT assays, cells were plated in 96-well plates (2,000 cells/well), allowed to adhere overnight, and subsequently treated in triplicate for 72 hours. MTT reagent (Roche) was applied, cells were solubilized and absorbance was read at 570 nm, with background subtraction at 690 nm. The clonogenic assay was performed as previously described. Briefly, cells were suspended in appropriate culture media, and plated in 6-well plates (2×10^3 cells/well). Medium was changed and drug treatment refreshed every 3-4 days for 2 weeks. Cells were subsequently stained with crystal violet and quantified.
In an attempt to improve in vivo activity, we designed a series of second-generation analogs of Lys05 to test the effect of changing each of the separate parts of the Lys05 structure on lysosomal inhibition and cytotoxicity. Replacement of the linker of Lys05 with the commercially available linker spermidine and exchanging the aromatic rings of Lys05 from CQ to the antimalarial-based heterocyclic systems primaquine (PQ), mefloquine (MQ) and quinacrine (QC) was interrogated (FIG. 1A). The dimeric antimalarial compounds were named DC (dimeric chloroquine), DM (dimeric mefloquine), DP (dimeric primaquine) and DQ (dimeric quinacrine). The dimeric compounds were named followed by three digits (m, n, r) where m signifies the number of carbons to the left of the central nitrogen, the n signifies the number of carbons on the right of the central nitrogen and the r signifies if the central nitrogen is methylated (1) or not (0). […] We generated a focused library of DQs with triamine linkers of increasing length ranging from lengths of two to eleven carbons between the QC heterocycle and the central nitrogen of the triamine linker. Both secondary and tertiary amine derivatives of each analog were generated to determine the role of central nitrogen alkylation on biological activity. A375P and PANC1 (pancreatic cancer) cells were treated with CQ, Lys05, QC and the DQ library, establishing the increase in anti-proliferative potency of DQs relative to monomeric QC. […] We observed a clear relationship between linker length and potency amongst the DQs. […] When tested in parallel to the DQs. […] PANC1 cells were treated with the panel of DQs (3 uM) as well as Spautin-1 (3 μM) and SBI-0206965 (3 μM) for 24 hours.

451Lu (melanoma) cells = assay: Bafilomycin clamp experiment (autophagic flux); assay type: cell-based; conditions: 3 μM, with or without bafilomycin-A1, 24 hours
A375P cells [2] = assay: phospho-H2AX immunofluorescence (DNA damage); assay type: cell-based; conditions: 6 hr, 3 μM
Procedure: as §1
The longer linked DQs can be separated into two classes based on central nitrogen substitution (secondary or tertiary amine)—those that localize to the nucleus and those that localize to the lysosome. We next sought to determine whether both classes of DQs cause DNA damage since quinacrine is known to intercalate DNA. […] Furthermore, the difference in DNA damage induced by unmethylated DQs versus the corresponding methylated DQs for each pair of compounds increase with increasing linker length.

[3] = tested on: 1205Lu melanoma xenografts; assay: 1205Lu melanoma xenograft model; assay type: in vivo, NSG mice; conditions: 8 mg/kg i.p., 2 days on / 2 days off
Procedure: FIG. 5: DQ661 has significant single-agent in vivo activity in melanoma xenograft model. […]. Mice were randomly split into 4 arms and treated with vehicle control (water, i.p.), quinacrine (8 mg/kg, i.p.), DQ660 (8 mg/kg, i.p.) or DQ661 (8 mg/kg, i.p.). Treatments were given as shown by the black arrows, following a regimen of 2 days on treatment followed by 2 days off treatment. (C) Representative electron micrographs from melanoma xenograft tumors harvested after 2 days of treatment according to (B). (D) Average tumor volumes for each treatment arm are shown. Each point represents the mean of N=8 mice per treatment arm and the error bars represent standard error (s.e.) (C) Representative EM for tumors treated in each arm. (E) A schematic for how mice were treated in (F). […]. Mice were randomly split into 3 arms and treated with water (i.p.), DQ661 (2 mg/kg, i.p.) or DQ661 (4 mg/kg, i.p.). Treatments were give as shown by the black arrows, following a regimen of 2 days on treatment followed by 2 days […]. Tumor volume is shown. Each point represents the mean of N=8 mice per treatment arm and the error bars represent s.e. (G) Average tumor growth rate for each treatment arm are shown. (H) Protein lysate was harvested from mouse tumors at the end of the experiment and immunoblotted for LC3B, phospho-4E-BP1 T37_T65, phospho-4E-BP1 S240_S244 and Actin. Quantification of proteins standardized to control mice levels are shown to the right.
Five to seven-week old NOD-scid gamma (NSG) mice (Jackson Laboratory) were used for xenograft studies with the 1205Lu melanoma cell line. Tumor generation, tumor measurement and tumor harvesting performed as previously described (ref). For the pancreatic cancer model, five to seven-week old C57BL/6 mice (Jackson Laboratory) and maintained under pathogen-free conditions. 2×10^6 G43 cells were subcutaneously injected with an equal volume of matrigel (BD) over the right flank […] and tumors became palpable after 5-6 days. Mice were enrolled on day 6 and given Gemcitabine (120 mg/kg, i.p.). DQ661 (4 mg/kg, i.p.) was given on days 7, 8, 12, 13, 17 and 18. Perpendicular tumor diameters were measured sing electronic calipers and volume was calculated leveraging the formula L×W^2×0.5, where L is the longest dimension and W is the perpendicular dimension. All animal experiments were performed in accordance to the protocols approved by the Institute of Animal Care and Use Committee of the University of Pennsylvania.
. After 1-2 weeks, tumors were palpable and mice were treated with vehicle control (water), quinacrine (8 mg/kg), DQ660 (8 mg/kg) or DQ661 (8 mg/kg) i.p (FIG. 5A). […]. Therefore another 1205Lu xenograft experiment was performed with mice treated with either vehicle control (water, n=6) or DQ661 (2 or 4 mg/kg, n=6) for a period of 14 days (FIG. 5e, 5F).

mTORC1 = assay: Immunoblot of mTORC1 signaling and LC3B, panel of lysosomal inhibitors; conditions: A375P cells; for 4E-BP1 phosphorylation: PES 10 μM, PET 10 μM, Bafilomycin A1 100 nM; for mTORC1 activity (Western blotting): DQ661 3 μM, Pepstatin A 10 μG/mL, Siramesine 8 μM
PANC1 cells = assay: Annexin V binding flow cytometry apoptosis assay; assay type: cell-based; conditions: 3 μM, 24 hours
Procedure: as §2
In an attempt to improve in vivo activity, we designed a series of second-generation analogs of Lys05 to test the effect of changing each of the separate parts of the Lys05 structure on lysosomal inhibition and cytotoxicity. Replacement of the linker of Lys05 with the commercially available linker spermidine and exchanging the aromatic rings of Lys05 from CQ to the antimalarial-based heterocyclic systems primaquine (PQ), mefloquine (MQ) and quinacrine (QC) was interrogated (FIG. 1A). The dimeric antimalarial compounds were named DC (dimeric chloroquine), DM (dimeric mefloquine), DP (dimeric primaquine) and DQ (dimeric quinacrine). […]

Compound: COc1ccc2nc3cc(Cl)ccc3c(NCCN(C)CCNc3c4ccc(Cl)cc4nc4ccc(OC)cc34)c2c1 [DQ 221]
- galectin-3 staining pattern (A375P cells [1]): diffuse staining for galectin-3
- anti-proliferative potency / activity (comparative) (A375P (melanoma) cells): same activity as monomeric QC; also recorded: potency was equal to monomeric quinacrine
- effect on autophagic flux (LC3II/LC3I ratio with vs without bafilomycin-A1) (451Lu (melanoma) cells): autophagy inhibitors

Compound: COc1ccc2nc3cc(Cl)ccc3c(NCCCNCCCNc3c4ccc(Cl)cc4nc4ccc(OC)cc34)c2c1 [DQ 330]
- anti-proliferative potency / activity (comparative) (A375P (melanoma) cells): significant increase in anti-proliferative potency

- IC50, anti-proliferative activity (A375P (melanoma) cells; A375P cells, FIG. 1B): low nanomolar
Compound: COc1ccc2nc3cc(Cl)ccc3c(NCCCCNCCCNc3c4ccc(Cl)cc4nc4ccc(OC)cc34)c2c1 [DQ 340]

Compound: COc1ccc2nc3cc(Cl)ccc3c(NCCCCN(C)CCCNc3c4ccc(Cl)cc4nc4ccc(OC)cc34)c2c1 [DQ 341]
- effect on autophagic flux (LC3II/LC3I ratio with vs without bafilomycin-A1) (451Lu (melanoma) cells): autophagy inhibitors

Compound: COc1ccc2nc3cc(Cl)ccc3c(NCCCCN(C)CCCCNc3c4ccc(Cl)cc4nc4ccc(OC)cc34)c2c1 [DQ 441]
- effect on autophagic flux (LC3II/LC3I ratio with vs without bafilomycin-A1) (451Lu (melanoma) cells): autophagy inhibitors

Compound: COc1ccc2nc3cc(Cl)ccc3c(NCCCCCNCCCCCNc3c4ccc(Cl)cc4nc4ccc(OC)cc34)c2c1 [DQ 550]
- galectin-3 staining pattern (A375P cells [1]): diffuse staining for galectin-3
- DNA damage (phospho-H2AX, γ-H2AX) (A375P cells [2]): significantly greater levels of DNA damage relative to their methylated counterparts

Compound: COc1ccc2nc3cc(Cl)ccc3c(NCCCCCN(C)CCCCCNc3c4ccc(Cl)cc4nc4ccc(OC)cc34)c2c1 [DQ 551]
- galectin-3 staining pattern (A375P cells [1]): punctate distribution of galectin-3
- effect on autophagic flux (LC3II/LC3I ratio with vs without bafilomycin-A1) (451Lu (melanoma) cells): autophagy inhibitors

Compound: COc1ccc2nc3cc(Cl)ccc3c(NCCCCCCNCCCCCCNc3c4ccc(Cl)cc4nc4ccc(OC)cc34)c2c1 [DQ 660]
- tumor growth [3]: modest but significant growth impairment of tumors
- galectin-3 staining pattern (A375P cells [1]): diffuse staining for galectin-3
- DNA damage (phospho-H2AX, γ-H2AX) (A375P cells [2]): significantly greater levels of DNA damage relative to their methylated counterparts

Compound: COC(=O)[C@H](CC(C)C)NC(=O)[C@@H](N)CC(C)C [LLOMe, L-leucyl-L-leucine methyl ester, reference compound]
- galectin-3 staining pattern (A375P cells [1]): punctate distribution of galectin-3

Compound: NS(=O)(=O)C#Cc1ccccc1 [PES]
- 4E-BP1 phosphorylation (mTORC1): hyperphosphorylation of 4E-BP1

Compound: CNC(=O)c1ccccc1Oc1nc(Nc2cc(OC)c(OC)c(OC)c2)ncc1Br [SBI-0206965, reference compound]
- apoptosis (annexin V) (PANC1 cells): did not induce significant levels of apoptosis
- anti-proliferative potency / activity (comparative) (A375P (melanoma) cells): did not have significantly increased anti-cancer activity relative to monomeric chloroquine or monomeric quinacrine

Compound: Fc1ccc(-n2cc(CCCCN3CCC4(CC3)OCc3ccccc34)c3ccccc32)cc1 [Siramesine]
- mTORC1 activity (Western blotting) (mTORC1): did not inhibit mTORC1 activity

Compound: Fc1ccc(CNc2ncnc3ccc(F)cc23)cc1 [Spautin-1, reference compound]
- apoptosis (annexin V) (PANC1 cells): did not induce significant levels of apoptosis
- anti-proliferative potency / activity (comparative) (A375P (melanoma) cells): did not have significantly increased anti-cancer activity relative to monomeric chloroquine or monomeric quinacrine

Compound: CCN(CC)CCCC(C)Nc1c2ccc(Cl)cc2nc2ccc(OC)cc12 (centres unmarked) [quinacrine, reference compound]
- tumor growth [3]: no significant effect on tumor growth compared to vehicle control
- galectin-3 staining pattern (A375P cells [1]): diffuse staining for galectin-3
- effect on autophagic flux (LC3II/LC3I ratio with vs without bafilomycin-A1) (451Lu (melanoma) cells): induces autophagic flux

Compound: Bafilomycin
- 4E-BP1 phosphorylation (mTORC1): hyperphosphorylation of 4E-BP1

Compound: Pepstatin A
- mTORC1 activity (Western blotting) (mTORC1): did not significantly affect mTORC1 activity
